Experimental data as given in patent publication US20170176446A1, “Methods for Determining the Oncogenic Condition of Cell, Uses Thereof, and Methods for Treating Cancer” (INSERM (INSTITUT NATIONAL DE LA SANTE ET DE LA RECHERCHE …, priority 2009, published 2017).

Columns and labels:
HT-29 = test: Inhibition of OCDO production by PBPE in HT-29; assay type: cell-based; conditions: Homo sapiens, 40 μM PBPE, 48 hours
Method: (§1) An analogous experiment was reproduced with different cell lines, with the cells tested being incubated for 48 hours in a 40 μM solution of PBPE. It was noted that the OCDO was 100% inhibited for all the lines in the following table that were tested:
(§2) Generally, in order to establish the percentages of OCDO inhibition from the thin-layer chromatography (TLC) plates obtained as in assay 2, the radioactive metabolites are identified and quantified on the basis of said plates using a europium-sensitive plate of GP Phosphor screen type (GE Healthcare) and a Storm 840 phosphorimagor (GE Healthcare). The proportion of radiolabeled oxysterols is determined on the autoradiogram obtained by densitometry using the Image Quant 5.2 software. The percentage is calculated on the basis of the ratio between the amount of oxysterols quantified divided by the sum of the amounts of oxysterols (CEE+CE+CT+OCDO). Since the CEE (CE ester) originates exclusively from the CE, the percentage CE is calculated on the basis of the ratio (CE+CEE)/(CE+CEE+CT+OCDO).

U-937 = test: Inhibition of OCDO production by PBPE in U-937; assay type: cell-based; conditions: Homo sapiens, 40 μM PBPE, 48 hours
Method: as §1, §2

A-549 = test: Inhibition of OCDO production by PBPE in A-549; assay type: cell-based; conditions: Homo sapiens, A549, 40 μM PBPE, 48 hours
Method: as §1, §2

Saos-2 = test: Inhibition of OCDO production by PBPE in Saos-2; assay type: cell-based; conditions: Homo sapiens, 40 μM PBPE, 48 hours
Method: as §1, §2

C6 = test: Inhibition of OCDO production by PBPE in C6; assay type: cell-based; conditions: Rattus norvegicus, 40 μM PBPE, 48 hours
Method: as §1, §2

ChEH [1] = molecular target: T1, ChEH (Rattus norvegicus, UniProt Q9JJ46); test: Determination of the Ki for ChEH on rat liver microsome proteins (Dixon method); assay type: biochemical; conditions: 150 μg rat liver microsome proteins, [14C]CEα
T1 construct: 150 μg of rat liver microsome proteins are incubated; from tissue; host or cells: rat liver microsomes
T1 sequence (Q9JJ46 1-230): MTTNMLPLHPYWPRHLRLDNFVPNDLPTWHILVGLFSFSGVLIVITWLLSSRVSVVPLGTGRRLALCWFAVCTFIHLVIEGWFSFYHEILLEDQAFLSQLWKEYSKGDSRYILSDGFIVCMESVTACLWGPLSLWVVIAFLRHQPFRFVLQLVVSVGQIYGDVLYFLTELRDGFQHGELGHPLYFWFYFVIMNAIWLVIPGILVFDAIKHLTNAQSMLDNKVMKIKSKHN

MDA-MB-231 = test: Inhibition of OCDO production by PBPE in MDA-MB-231; assay type: cell-based; conditions: Homo sapiens, 40 μM PBPE, 48 hours
Method: as §1, §2

OCDO = OCDO content of TS/A tumors by GC/MS; assay type: in vivo, mice; conditions: PBPE 40 μM, 100 μl intratumorally once a day
Method: 5 volumes (relative to the mass removed) of buffer (50 mM Tris-HCl, 150 mM KCl, pH=7.4) are added. The tumors are ground and the homogenates are centrifuged for 5 minutes at 2500 rpm at 4° C. […] After centrifugation (to separate the phases), the organic phase is recovered. The organic phase is evaporated to dryness and then the residue is taken up with 0.5 ml of chloroform. The organic extracts are filtered on 0.5 ml silica cartridges. The polar sterols are eluted sequentially:
1) 0.5 ml of a hexane/chloroform mixture (1/1), 2) 0.5 ml of chloroform, 3) 0.5 ml of ethyl acetate and methanol.
The ethyl acetate fractions are evaporated, silylated (50 μl 1/1 acetonitrile/BSTFA) and then analyzed by GC/MS (2 μl) according to the conditions described above.

P19 = test: Inhibition of OCDO production by PBPE in P19; assay type: cell-based, murine; conditions: Mus musculus, 40 μM PBPE, 48 hours
Method: as §1, §2

HeLa = test: Inhibition of OCDO production by PBPE in HeLa; assay type: cell-based; conditions: Homo sapiens, 40 μM PBPE, 48 hours
Method: as §1, §2

SH-N-SH = test: Inhibition of OCDO production by PBPE in SH-N-SH; assay type: cell-based; conditions: Homo sapiens, 48 h, read-out: Inhibition of OCDO production
Method: as §1, §2

ChEH [2] = molecular target: T2, ChEH (Homo sapiens, UniProt Q15125); test: Inhibition of ChEH activity in MCF7 cells (TLC of [14C]CE conversion); assay type: cell-based; conditions: tamoxifen 0.01-5 μM with [14C]CEα; PBPE 0.01-10 μM with [14C]CEβ
T2 construct: MCF7 tumor cells, which originate from the American Tissue Culture Collection (ATCC), were used; host or cells: MCF7
Method: For this experiment, an aminoalkyl sterol included in French patent 2 838 741 (and also see: de Medina et al., J Med Chem: 2009, vol. 52, No. 23, p. 7765-7777), having the formula: 6-N-[2-(3H-imidazol-4-yl)ethylamino]cholestane-3β,5α-diol (DDA), was chosen. […]
A thin-layer chromatography was carried out, the plate of which has been reproduced in FIG. 23. On this plate, the incubation is carried out, for lane 1, with [^14C]CE; for lane 2, with [^14C]CT; for lane 3, with the vehicle solvent, which is the same as that used for assays 1 to 5; for lane 4, with [14C]CE and 0.1 μM of the aminoalkyl sterol; and for lane 5, with [^14C]CE and a concentration of 1 μM of the aminoalkyl sterol.

TT = test: Inhibition of OCDO production by PBPE in TT; assay type: cell-based; conditions: Homo sapiens, 48 h, read-out: Inhibition of OCDO production
Method: as §1, §2

B-16-F10 = test: Inhibition of OCDO production by PBPE in B-16-F10; assay type: cell-based, murine; conditions: Mus musculus, B16-F10, 40 μM PBPE, 48 hours
Method: as §1, §2

T2 sequence (Q15125 whole entry): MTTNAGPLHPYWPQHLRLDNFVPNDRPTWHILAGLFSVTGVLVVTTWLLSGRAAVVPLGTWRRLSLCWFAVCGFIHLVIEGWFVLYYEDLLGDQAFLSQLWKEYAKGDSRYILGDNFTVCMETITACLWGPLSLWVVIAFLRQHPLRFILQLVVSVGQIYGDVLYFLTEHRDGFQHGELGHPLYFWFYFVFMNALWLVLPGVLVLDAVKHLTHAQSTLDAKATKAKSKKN

c1ccc(Cc2ccc(OCCN3CCCC3)cc2)cc1 [PBPE, N,N-pyrrolidino-[(4-benzyl)phenoxy]ethanamine]
inhibition at 40 µM (HT-29): 100% | inhibition at 40 µM (U-937): 100% | inhibition at 40 µM (A-549): 100% | inhibition at 40 µM (Saos-2): 100% | inhibition at 40 µM (C6): 100% | Ki (ChEH [1]): 26.8 ± 6 nM | inhibition at 40 µM (MDA-MB-231): 100% | OCDO (% control) (OCDO; Day 28): 22.5 ± 5 % control | OCDO (% control) (OCDO; Day 37): 9.6 ± 5 % control | inhibition at 40 µM (P19): 100% | inhibition at 40 µM (HeLa): 100% | inhibition at 40 µM (SH-N-SH): 100% | inhibition of the ChEH activity (3 days) in MCF7 cells (ChEH [2]): Dose-dependent inhibition | inhibition at 40 µM (TT): 100% | inhibition at 40 µM (B-16-F10): 100%
